Measurements reported in patent publication US10344002B2, “Compositions and methods for treating metabolic disorders” (NuSirt Sciences, Inc., priority 2016, dated 2019).

Columns and labels:
[1] = test system: C2C12 muscle cells; experiment: Fatty acid oxidation (oxygen consumption rate, Seahorse XF-24) in C2C12 muscle cells; assay type: cell-based; details: same system
Method: Cell Culture: C2C12 muscle cells were seeded with 40,000 cells per well on Seahorse tissue culture plates in Dulbecco's modified eagle's medium (DMEM) containing 10% fetal bovine serum (FBS) and antibiotics (1% penicillin-streptomycin) at 37° C. in 5% CO2. After reaching confluency (24 hours), cells were induced to differentiate with DMEM containing 2% Horse Serum for 3 to 4 days until myotubes were fully formed. Cells were then treated with indicated concentration of Compound 2 for 24 hours.
(§1) Compound 2 was dissolved in 100% DMSO to a stock concentration of 100 mM. This stock was further diluted to indicated concentrations in DMEM media.
Fatty acid oxidation: Baseline and palmitate-stimulated oxygen consumption rates were measured with XF-24 analyzer (Seahorse Bioscience (now part of Agilent Technologies), MA, USA). After 24 hour treatment with Compound 2 of differentiated C2C12 muscle cells, cells were washed twice with non-buffered carbonate-free pH 7.4 low glucose (2.5 mM) DMEM containing carnitine (0.5 mM), equilibrated with 600 μl of the same media in a non-CO2 incubator for 45 minutes, and then inserted into the instrument for 15 minutes of further equilibration, followed by O2 consumption measurement. Three successive baseline measures at five-minute intervals were taken prior to injection of palmitate (200 μM final concentration). Sets of three five-minute intervals followed by 10-minute time delay were continued over a 2 to 3 hour period after palmitate injection. The area under the curve of 02 consumption change from baseline for each sample was then calculated and used for subsequent analysis. Data are represented as mean±SD for each treatment group.

[2] = test system: HepG2 liver cells; experiment: Lipid accumulation (Oil Red Staining) in HepG2 liver cells induced with high glucose plus insulin; assay type: cell-based; details: same system
Method: Cell Culture: HepG2 liver cells were seeded with 80,000 cells per well on 24-well tissue culture plates in low glucose (5 mM) DMEM containing 10% FBS and antibiotics. After 24 hours of attachment, lipid accumulation was induced by incubating cells with high glucose (25 mM) DMEM (10% FBS, 1% Pen-Strep) plus 100 nM insulin for 48 hours. Cells were then treated with indicated concentrations of Compound 2 for an additional 48 hours.
as §1
Lipid accumulation (Oil Red Staining): HepG2 liver cells were seeded and treated as described above. After 48 hours of treatment with Compound 2, lipid accumulation in HepG2 was measured via Oil Red Staining. Cells were washed with phosphate buffered saline (PBS) once, then cells were fixated with 10% formalin for 1 hour. After removal of the formalin, cells were washed with ddH2O twice, then washed with 60% isopropanol. Cells were dried completely. Cells were stained with Oil Red working solution (˜5 mM) for 25 minutes, then immediately washed with ddH2O four times, then dried completely again. Oil Red dye was eluted with 100% isopropanol and absorbance was read at 500 nm. Unstained cells plus isopropanol was used as a blank and subtracted from all readings. Data are represented as mean±SEM for each treatment group.

[3] = test system: C2C12 muscle cells; details: same system, metformin alone; cited from earlier work
[4] = test system: HepG2 liver cells; details: same system, metformin alone; cited from earlier work

In the case of CN(C)C(=N)NC(=N)N [metformin, Metformin, reference compound], the “fold higher concentration (in comparison with Compound 2) for fat oxidation” value [1] is given as 100,000 fold, the “fold higher concentration (in comparison with Compound 2) for reducing hepatic lipids” value [2] is given as 100,000 fold and the “concentration below which fat oxidation is not stimulated” value [3] is given as at least 1 mM. The “concentration below which hepatic lipids are not reduced” value [4] was at least 1 mM.
